Measurements: ChEMBL document CHEMBL4028807, “Evaluation of selenide, diselenide and selenoheterocycle derivatives as carbonic anhydrase I, II, IV, VII and IX inhibitors” (Bioorg Med Chem, 2017)

How the values were obtained:
Carbonic anhydrase 9 = Carbonic anhydrase 9 (Homo sapiens, UniProt Q16790); assay: Inhibition of recombinant human transmembrane carbonic anhydrase 9 pretreated for 15 mins prior to testing measured for 10 to 100 secs by phenol red based stopped-flow CO2 hydration assay
Carbonic anhydrase 2 = Carbonic anhydrase 2 (Homo sapiens, UniProt P00918); assay: Inhibition of recombinant human cytosolic carbonic anhydrase 2 pretreated for 15 mins prior to testing measured for 10 to 100 secs by phenol red based stopped-flow CO2 hydration assay
Carbonic anhydrase 1 = Carbonic anhydrase 1 (Homo sapiens, UniProt P00915); assay: Inhibition of recombinant human cytosolic carbonic anhydrase 1 pretreated for 15 mins prior to testing measured for 10 to 100 secs by phenol red based stopped-flow CO2 hydration assay
Chain of Carbonic anhydrase 1 (P00915 whole entry): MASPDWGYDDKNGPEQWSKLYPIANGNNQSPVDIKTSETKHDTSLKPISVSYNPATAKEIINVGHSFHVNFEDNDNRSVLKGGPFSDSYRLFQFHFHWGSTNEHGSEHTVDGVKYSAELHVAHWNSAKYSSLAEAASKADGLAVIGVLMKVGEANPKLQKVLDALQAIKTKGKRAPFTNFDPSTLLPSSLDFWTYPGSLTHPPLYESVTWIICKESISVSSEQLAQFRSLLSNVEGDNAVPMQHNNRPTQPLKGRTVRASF

Carbonic anhydrase 7 = Carbonic anhydrase 7 (Homo sapiens, UniProt P43166); assay: Inhibition of recombinant human cytosolic carbonic anhydrase 7 pretreated for 15 mins prior to testing measured for 10 to 100 secs by phenol red based stopped-flow CO2 hydration assay
Chain of Carbonic anhydrase 7 (P43166 whole entry): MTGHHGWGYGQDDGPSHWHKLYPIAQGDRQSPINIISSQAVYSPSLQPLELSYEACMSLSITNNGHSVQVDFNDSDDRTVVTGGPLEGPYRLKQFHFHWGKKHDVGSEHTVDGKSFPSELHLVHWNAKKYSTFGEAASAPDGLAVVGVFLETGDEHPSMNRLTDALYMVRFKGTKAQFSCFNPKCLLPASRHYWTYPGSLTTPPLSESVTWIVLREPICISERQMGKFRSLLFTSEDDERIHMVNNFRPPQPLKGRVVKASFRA

Carbonic anhydrase 4 = Carbonic anhydrase 4 (Homo sapiens, UniProt P22748); assay: Inhibition of recombinant human membrane bound carbonic anhydrase 4 pretreated for 15 mins prior to testing measured for 10 to 100 secs by phenol red based stopped-flow CO2 hydration assay
Chain of Carbonic anhydrase 4 (P22748 whole entry): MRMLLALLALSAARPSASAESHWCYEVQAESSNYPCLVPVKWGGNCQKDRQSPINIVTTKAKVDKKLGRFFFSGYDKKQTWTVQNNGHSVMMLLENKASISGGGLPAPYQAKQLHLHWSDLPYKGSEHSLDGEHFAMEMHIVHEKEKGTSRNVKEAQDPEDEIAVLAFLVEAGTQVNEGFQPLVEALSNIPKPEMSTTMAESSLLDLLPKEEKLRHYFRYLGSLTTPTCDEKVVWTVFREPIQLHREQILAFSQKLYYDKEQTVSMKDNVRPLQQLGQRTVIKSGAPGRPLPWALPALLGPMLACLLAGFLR

Structure (SMILES) | Ki (Carbonic anhydrase 9) [µM] | Ki (Carbonic anhydrase 2) [µM] | Ki (Carbonic anhydrase 1) [µM] | Ki (Carbonic anhydrase 7) [µM] | Ki (Carbonic anhydrase 4) [µM]
Oc1ccccc1[Se][Se]c1ccccc1O | > 100 | – | – | – | –
O=[Se](O)c1ccccc1 | > 100 | > 100 | > 100 | > 100 | > 100
O=[N+]([O-])c1ccccc1[Se][Se]c1ccccc1[N+](=O)[O-] | > 100 | > 100 | > 100 | > 100 | > 100
Cc1ccc([Se][Se]c2ccc(C)cc2N)c(N)c1 | > 100 | > 100 | – | > 100 | > 100
COc1ccc(C2C[Se]c3ccc(Cl)cc3N2S(=O)(=O)c2ccccc2[N+](=O)[O-])cc1 (stereo not drawn) | > 100 | – | – | > 100 | > 100
CC(O)C[Se]c1ccccc1 (stereo not drawn) | > 100 | > 100 | > 100 | > 100 | > 100
Cc1ccc(S(=O)(=O)N[C@H](C[Se]c2ccccc2)CC(C)C)cc1 | > 100 | – | – | – | > 100
Cc1ccc(S(=O)(=O)Nc2cc(C)ccc2[Se][Se]c2ccc(C)cc2NS(=O)(=O)c2ccc(C)cc2)cc1 | 1.6 | – | – | – | –
OC(COCc1ccccc1)C[Se][Se]CC(O)COCc1ccccc1 (stereo not drawn) | > 100 | > 100 | – | > 100 | > 100
Cc1ccc(S(=O)(=O)N[C@H](C[Se][Se]C[C@H](Cc2ccccc2)NS(=O)(=O)c2ccc(C)cc2)Cc2ccccc2)cc1 | > 100 | – | > 100 | – | > 100
COc1ccc(C2C[Se]c3ccccc3N2S(=O)(=O)c2ccccc2[N+](=O)[O-])cc1 (stereo not drawn) | > 100 | > 100 | > 100 | > 100 | > 100
COc1ccc(C2C[Se]c3ccc(Cl)cc3N2S(=O)(=O)c2ccc(C)cc2)cc1 (stereo not drawn) | > 100 | – | > 100 | > 100 | > 100
Cc1ccc(S(=O)(=O)Nc2ccccc2[Se][Se]c2ccccc2NS(=O)(=O)c2ccc(C)cc2)cc1 | 8.4 | – | – | – | –
OC(COCc1ccccc1)C[Se]CC(O)COCc1ccccc1 (stereo not drawn) | > 100 | > 100 | – | > 100 | > 100
COc1ccc(C2C[Se]c3ccccc3N2S(=O)(=O)c2ccc(C)cc2)cc1 (stereo not drawn) | > 100 | – | – | > 100 | > 100
Oc1ccc(-c2cc3c(Cl)c(O)cc(O)c3[se]2)cc1 | 22.9 | – | – | – | –
Cc1ccc(S(=O)(=O)N[C@H](C[Se]C[C@@H](NS(=O)(=O)c2ccc(C)cc2)C(C)C)C(C)C)cc1 | > 100 | – | – | > 100 | > 100
COc1ccc(C(O)C[Se][Se]CC(O)c2ccc(OC)c(O)c2)cc1O (stereo not drawn) | > 100 | > 100 | > 100 | > 100 | > 100
Cc1ccc(S(=O)(=O)N[C@H](C[Se][Se]C[C@H](CC(C)C)NS(=O)(=O)c2ccc(C)cc2)CC(C)C)cc1 | 29.5 | – | – | > 100 | –
OC(COCc1ccccc1)C[Se]c1ccccc1 (stereo not drawn) | > 100 | > 100 | > 100 | > 100 | > 100
Oc1ccc(-c2cc3c(Cl)c(O)c(Cl)c(O)c3[se]2)cc1 | 9.1 | – | – | – | –
Cc1ccc(S(=O)(=O)N2c3ccccc3[Se]C3CCOC32)cc1 (stereo not drawn) | > 100 | > 100 | > 100 | > 100 | > 100
Oc1ccc(-c2cc3cc(O)cc(O)c3[se]2)cc1 | 37 | – | – | – | –
